Drawing on patent US20230295119A1, “SUBSTITUTED PYRIDINES FOR THE TREATMENT OF INFLAMMATORY DISEASES” (GOSSAMER BIO SERVICES, INC., priority 2020, published 2023), this text covers IC50 for 15 compounds.

Experiment [1] deals with TYK2 JH2 domain (Homo sapiens (Human), UniProt P29597). Put plainly: TYK2 JH2 NanoBRET assay. Format: binding. The note with it: Table 20, read-out: TYK2 IC50. As for the experimental part:
HEK293T cells were transfected with NanoLuc-TYK2 JH2 Fusion Vector (Promega, customized) using Trans-IT reagent (Mirus, #MIR2700) and incubated for overnight in 37° C. incubator. […] Add 85 µL of cell suspension into white, polypropylene, 96-well plates (Corning, #3600). 90 µL of cells were used for no tracer control samples. 5 µL of diluted NanoBRET K10 tracer (Promega, #CS1810C122) were added to cells to a final concentration of 0.5 µM. Test compounds were diluted into DMSO, and then phenol-free opti-MEM to 10X of final concentration. 10 µL of diluted compounds were added into each well. The cells were incubated with test compound and tracer for 2 hours. 3XNanoBRET® Nano-Glo® Substrate and Extracellular NanoLuc® Inhibitor mixture were prepared and 50 µL of the mixture were added into the wells and mixed. […] NanoBRET signal was determined by using the ratio of acceptor signal and donor signal.

In experiment [2] the target is human JAK3 (Homo sapiens (Human), UniProt P52333). Put plainly: JAK3 TR-FRET kinase assay. Format: biochemical. The note with it: JAK3 0.0125 nM. (In TR-FRET formats the signal depends on donor and acceptor labels being close together.)
The target in experiment [3] is human JAK1 (Homo sapiens (Human), UniProt P23458). Put plainly: JAK1 TR-FRET kinase assay. Format: biochemical. Particulars: TR-FRET, JAK1 2.5 nM.
Experiment [4] addresses human JAK2 (Homo sapiens (Human), UniProt O60674). Put plainly: JAK2 TR-FRET kinase assay. The format is biochemical. The note with it: JAK2 0.025 nM.

The structures appear in SMILES notation. pIC50: −log10 of the molar value. Bounds are passed on as bounds.

Chain of human JAK1 (P23458 whole entry): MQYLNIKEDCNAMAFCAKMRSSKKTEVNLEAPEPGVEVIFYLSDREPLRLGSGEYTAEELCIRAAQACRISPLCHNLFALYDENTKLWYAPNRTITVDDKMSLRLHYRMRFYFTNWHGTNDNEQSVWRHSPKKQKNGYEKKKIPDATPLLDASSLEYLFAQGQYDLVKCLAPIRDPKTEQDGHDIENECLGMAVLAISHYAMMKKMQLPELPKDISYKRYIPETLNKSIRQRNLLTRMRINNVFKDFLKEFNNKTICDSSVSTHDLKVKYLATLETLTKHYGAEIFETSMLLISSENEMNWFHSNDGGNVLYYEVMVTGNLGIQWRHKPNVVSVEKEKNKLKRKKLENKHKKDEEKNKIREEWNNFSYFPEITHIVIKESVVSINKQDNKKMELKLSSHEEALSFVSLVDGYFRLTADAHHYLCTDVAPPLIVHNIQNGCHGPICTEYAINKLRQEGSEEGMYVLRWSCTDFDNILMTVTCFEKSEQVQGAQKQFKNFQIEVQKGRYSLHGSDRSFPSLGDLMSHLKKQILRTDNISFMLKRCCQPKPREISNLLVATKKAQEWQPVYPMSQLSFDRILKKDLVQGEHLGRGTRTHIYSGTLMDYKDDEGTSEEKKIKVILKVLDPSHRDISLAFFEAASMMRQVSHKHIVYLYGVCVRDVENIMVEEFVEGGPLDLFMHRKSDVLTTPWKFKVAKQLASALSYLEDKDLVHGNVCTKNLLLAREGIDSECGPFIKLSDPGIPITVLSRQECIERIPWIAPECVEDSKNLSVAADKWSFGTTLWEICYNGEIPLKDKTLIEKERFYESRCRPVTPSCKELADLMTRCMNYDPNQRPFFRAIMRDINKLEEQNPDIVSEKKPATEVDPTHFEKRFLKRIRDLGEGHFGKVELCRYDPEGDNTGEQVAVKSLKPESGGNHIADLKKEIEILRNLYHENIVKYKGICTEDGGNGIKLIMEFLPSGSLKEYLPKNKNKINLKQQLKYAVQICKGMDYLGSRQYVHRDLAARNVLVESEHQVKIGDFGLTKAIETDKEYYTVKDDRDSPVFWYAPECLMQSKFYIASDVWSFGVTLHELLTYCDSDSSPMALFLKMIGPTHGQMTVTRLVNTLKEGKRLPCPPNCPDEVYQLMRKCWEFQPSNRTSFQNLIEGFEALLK
Chain of TYK2 JH2 domain (P29597 589-875): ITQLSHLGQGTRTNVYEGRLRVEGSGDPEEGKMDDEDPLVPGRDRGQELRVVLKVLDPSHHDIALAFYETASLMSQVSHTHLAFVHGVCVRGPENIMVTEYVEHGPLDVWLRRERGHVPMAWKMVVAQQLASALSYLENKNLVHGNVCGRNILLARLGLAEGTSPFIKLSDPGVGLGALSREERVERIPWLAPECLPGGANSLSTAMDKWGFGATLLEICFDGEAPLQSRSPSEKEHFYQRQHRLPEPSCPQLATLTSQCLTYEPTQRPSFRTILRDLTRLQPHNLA
Chain of human JAK3 (P52333 whole entry): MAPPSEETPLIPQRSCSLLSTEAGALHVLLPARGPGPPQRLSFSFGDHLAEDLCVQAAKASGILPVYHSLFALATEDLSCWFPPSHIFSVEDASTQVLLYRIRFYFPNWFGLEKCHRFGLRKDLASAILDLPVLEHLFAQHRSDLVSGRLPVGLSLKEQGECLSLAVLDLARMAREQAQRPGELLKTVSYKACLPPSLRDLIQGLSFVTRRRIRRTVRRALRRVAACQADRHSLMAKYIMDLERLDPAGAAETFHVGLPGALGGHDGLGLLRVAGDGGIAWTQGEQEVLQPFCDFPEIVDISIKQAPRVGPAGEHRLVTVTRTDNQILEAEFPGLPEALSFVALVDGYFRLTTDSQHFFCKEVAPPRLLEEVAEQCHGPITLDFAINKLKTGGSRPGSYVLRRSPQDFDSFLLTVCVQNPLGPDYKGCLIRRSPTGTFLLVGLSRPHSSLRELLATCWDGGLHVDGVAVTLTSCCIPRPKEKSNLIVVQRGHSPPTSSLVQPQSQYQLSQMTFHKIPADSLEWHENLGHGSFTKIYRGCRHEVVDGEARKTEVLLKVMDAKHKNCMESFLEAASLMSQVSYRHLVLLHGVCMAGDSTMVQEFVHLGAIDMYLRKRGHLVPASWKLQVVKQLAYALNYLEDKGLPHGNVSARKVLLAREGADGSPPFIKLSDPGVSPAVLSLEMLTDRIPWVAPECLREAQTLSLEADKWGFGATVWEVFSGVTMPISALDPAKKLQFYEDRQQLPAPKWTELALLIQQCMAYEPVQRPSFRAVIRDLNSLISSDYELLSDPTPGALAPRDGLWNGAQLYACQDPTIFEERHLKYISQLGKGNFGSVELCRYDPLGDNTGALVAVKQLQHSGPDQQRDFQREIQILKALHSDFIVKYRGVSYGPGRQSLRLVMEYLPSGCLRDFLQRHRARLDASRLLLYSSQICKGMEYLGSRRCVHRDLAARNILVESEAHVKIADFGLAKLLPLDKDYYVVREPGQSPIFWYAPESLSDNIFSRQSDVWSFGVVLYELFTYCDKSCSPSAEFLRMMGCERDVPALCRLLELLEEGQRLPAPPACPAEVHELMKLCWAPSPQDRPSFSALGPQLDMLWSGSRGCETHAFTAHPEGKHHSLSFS
Chain of human JAK2 (O60674 whole entry): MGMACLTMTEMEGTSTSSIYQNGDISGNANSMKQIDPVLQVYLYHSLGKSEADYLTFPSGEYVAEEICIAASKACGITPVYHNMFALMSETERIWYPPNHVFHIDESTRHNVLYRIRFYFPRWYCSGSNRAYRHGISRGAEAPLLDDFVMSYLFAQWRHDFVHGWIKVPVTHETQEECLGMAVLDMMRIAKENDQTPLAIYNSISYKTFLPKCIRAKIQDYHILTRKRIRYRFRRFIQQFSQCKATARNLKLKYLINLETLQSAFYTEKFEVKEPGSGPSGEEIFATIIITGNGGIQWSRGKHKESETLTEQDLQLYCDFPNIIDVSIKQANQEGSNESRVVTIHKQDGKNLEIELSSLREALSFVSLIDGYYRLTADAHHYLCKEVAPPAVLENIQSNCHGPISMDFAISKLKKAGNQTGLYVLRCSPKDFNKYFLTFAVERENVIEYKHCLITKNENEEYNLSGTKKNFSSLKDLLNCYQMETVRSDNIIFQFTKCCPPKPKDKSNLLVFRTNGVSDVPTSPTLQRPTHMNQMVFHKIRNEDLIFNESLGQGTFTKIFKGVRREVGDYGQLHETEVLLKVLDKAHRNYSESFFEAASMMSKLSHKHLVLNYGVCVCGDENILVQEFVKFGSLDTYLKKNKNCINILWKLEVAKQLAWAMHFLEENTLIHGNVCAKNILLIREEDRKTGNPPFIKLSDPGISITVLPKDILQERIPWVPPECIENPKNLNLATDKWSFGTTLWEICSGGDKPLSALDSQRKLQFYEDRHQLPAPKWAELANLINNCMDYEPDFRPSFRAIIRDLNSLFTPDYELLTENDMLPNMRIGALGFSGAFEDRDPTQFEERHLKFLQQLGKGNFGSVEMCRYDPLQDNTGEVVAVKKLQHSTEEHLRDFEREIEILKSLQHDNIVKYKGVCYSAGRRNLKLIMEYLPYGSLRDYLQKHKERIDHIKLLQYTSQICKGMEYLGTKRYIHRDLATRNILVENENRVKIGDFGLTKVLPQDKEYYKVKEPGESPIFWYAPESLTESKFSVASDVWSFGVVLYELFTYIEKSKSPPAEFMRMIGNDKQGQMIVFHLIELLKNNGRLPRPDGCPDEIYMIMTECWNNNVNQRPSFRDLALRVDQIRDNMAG

On to `CCC(=O)c1cnc(Nc2cccc(CN3CCOCC3)n2)cc1Nc1cccc(-c2ncn(C)n2)c1OC` [Compound 9HHHH], for which the pIC50 in experiment [1] is more than 8.30; in experiment [2], not above 6.30; in experiment [3], not above 6.30; in experiment [4], not above 6.30.

For `CCC(=O)c1cnc(Nc2ccc(CN(C)C)nn2)cc1Nc1cccc(-c2ncn(C)n2)c1OC` [Compound 9HHH], the negative logarithm of the IC50 (pIC50) in experiment [1] was 7.30 to 8.30; in experiment [2], not above 6.30; in experiment [3], not above 6.30; in experiment [4], not above 6.30.

Take `CCC(=O)c1cnc(Nc2ccc([C@@H](C)N3CC(O)C3)cn2)cc1Nc1cccc(-c2ncn(C)n2)c1OC` [Compound 9HH]: the pIC50 was 7.30 to 8.30 in experiment [1], not above 6.30 in experiment [2], not above 6.30 in experiment [3] and not above 6.30 in experiment [4].

In the case of `CCC(=O)c1cnc(Nc2ccc(C(C)NC)cn2)cc1Nc1cccc(-c2ncn(C)n2)c1OC` (stereo not drawn) [Compound 9H], the pIC50 was more than 8.30 in experiment [1], not above 6.30 in experiment [2], not above 6.30 in experiment [3] and not above 6.30 in experiment [4].

Turning to `CCC(=O)c1cnc(Nc2cc(CN3CCCC3)ccn2)cc1Nc1cccc(-c2ncn(C)n2)c1OC` [Compound 9IIII], the pIC50 in experiment [1] is more than 8.30; in experiment [2], 6.30 to 7.30; in experiment [3] it was not above 6.30; in experiment [4], 6.30 to 7.30.

As to `CCC(=O)c1cnc(Nc2ccc(C(C)N)nn2)cc1Nc1cccc(-c2ncn(C)n2)c1OC` (stereo not drawn) [Compound 9III], the negative logarithm of the IC50 (pIC50) in experiment [1] is 7.30 to 8.30; in experiment [2], not above 6.30; in experiment [3], not above 6.30; in experiment [4], not above 6.30.

Turning to `CCC(=O)c1cnc(Nc2ccc(CN3CCCC3)cn2)cc1Nc1cccc(-c2ncn(C)n2)c1OC` [Compound 9II], the pIC50 is more than 8.30 in experiment [1], not above 6.30 in experiment [2], not above 6.30 in experiment [3] and not above 6.30 in experiment [4].

With `CCC(=O)c1cnc(Nc2ccc(C(C)N(C)C)cn2)cc1Nc1cccc(-c2ncn(C)n2)c1OC` (stereo not drawn) [Compound 9I], the negative logarithm of the IC50 (pIC50) in experiment [1] was more than 8.30; in experiment [2], not above 6.30; in experiment [3], not above 6.30; in experiment [4], not above 6.30.

Consider `CCC(=O)c1cnc(Nc2cc(CN3CCCCC3)ccn2)cc1Nc1cccc(-c2ncn(C)n2)c1OC` [Compound 9JJJJ], for which the negative logarithm of the IC50 (pIC50) in experiment [1] was more than 8.30; in experiment [2], 6.30 to 7.30; in experiment [3], not above 6.30; in experiment [4], not above 6.30.

In the case of `CCC(=O)c1cnc(Nc2ccc(C(C)NC)nn2)cc1Nc1cccc(-c2ncn(C)n2)c1OC` (stereo not drawn) [Compound 9JJJ], the pIC50 was 7.30 to 8.30 in experiment [1], not above 6.30 in experiment [2], not above 6.30 in experiment [3] and not above 6.30 in experiment [4].

On to `CCC(=O)c1cnc(Nc2ccc(CN3CC[C@@H](F)C3)cn2)cc1Nc1cccc(-c2ncn(C)n2)c1OC` [Compound 9JJ], for which the pIC50 was more than 8.30 in experiment [1], not above 6.30 in experiment [2], not above 6.30 in experiment [3] and not above 6.30 in experiment [4].

Take `CCC(=O)c1cnc(Nc2ccc([C@@H](C)N(C)C)cn2)cc1Nc1cccc(-c2ncn(C)n2)c1OC` [Compound 9J]: the negative logarithm of the IC50 (pIC50) in experiment [1] is more than 8.30; in experiment [2], not above 6.30; in experiment [3] it was not above 6.30; in experiment [4], not above 6.30.

`CCC(=O)c1cnc(Nc2cc(CN3CCOCC3)ccn2)cc1Nc1cccc(-c2ncn(C)n2)c1OC` [Compound 9KKKK]: the pIC50 in experiment [1] is more than 8.30; in experiment [2], 6.30 to 7.30; in experiment [3] it was not above 6.30; in experiment [4] it was not above 6.30.

Consider `CCC(=O)c1cnc(Nc2ccc(C(C)N(C)C)nn2)cc1Nc1cccc(-c2ncn(C)n2)c1OC` (stereo not drawn) [Compound 9KKK], for which the pIC50 in experiment [1] is more than 8.30; in experiment [2], not above 6.30; in experiment [3] it was not above 6.30; in experiment [4], not above 6.30.

`CCC(=O)c1cnc(Nc2ccc(CN3CC[C@H](F)C3)cn2)cc1Nc1cccc(-c2ncn(C)n2)c1OC` [Compound 9KK]: the pIC50 is more than 8.30 in experiment [1], not above 6.30 in experiment [2], not above 6.30 in experiment [3] and not above 6.30 in experiment [4].

Usually pIC50 stands for the negative decadic logarithm of the IC50, by convention in mol/L.
